Experimental data reported in patent US9895353B2, “Use of L-tryptophan for the treatment of parasomnias” (Zzeemag Inc., priority 2013, dated 2018).

How the values were obtained:
[1] = system: subjects with parasomnia; experiment: Retrospective study of subjects with parasomnia (follow-up questionnaire and phone interview); assay type: in vivo, human
Experimental: A retrospective study was performed to evaluate the effects of L-tryoptophan on subjects with parasomnia and to look for sleep architectural differences in children before and after treatment.
Confidential charts were selected of boys and girls between the ages of 3 and 18 years with a clinical diagnosis of Parasomnias, and including behaviours of sleep walking, sleep talking, nightmares or night-terrors.
The 165 subjects that were included in the retrospective study of confidential charts were prescribed treatment with L-Tryptophan or Clonazepam, or no treatment. The exclusion criteria were children under the age 3 years or over the age 18 years and those undergoing treatment for Parasomnia at the time of the sleep study.
The diagnosis of parasomnia was made by a sleep physician and based on the clinical history together with confirmation from the polysomnographic sleep study findings.
An overnight polysomnographic sleep study and questionnaire data were collected during this study for each subject. Each of the subjects at the sleep clinic responded to a battery of questionnaires consisting of: Pediatric Daytime Sleepiness Scale (PDSS), THAT alertness scale, SNAP assessment for ADHD symptoms, Centre for Epidemiologic Studies in depression scale modified for children (CES-DC), and SCARED anxiety scale.
A follow-up questionnaire was formulated to assess for their symptoms following treatment with Tryptophan to compare values before and after treatment. A follow-up phone interview was conducted to assess the frequency of Parasomnias during and after treatment. The follow-up questionnaire included: daytime sleepiness, level of attention and concentration, ability to wake up in the morning, number of hours of sleep at night and incidence of temper tantrums.
Ninety nine (60%) of the 165 children were prescribed L-tryptophan to manage their parasomnia. The remaining were either prescribed Clonazepam (n=32) or were not prescribed anything. The latter reflected parental preference and/or clinical judgement.

[2] = system: subjects presenting with parasomnia; experiment: Case studies of subjects treated with L-tryptophan for parasomnia; assay type: in vivo, human
Experimental: A detailed analysis of a number of subjects presenting with parasomnia who were treated with L-tryptophan was performed. A selection of case reports of subjects treated with L-tryptophan are summarized below. Remarkably, L-tryptophan is useful for the treatment of subjects presenting with a variety of abnormal behavioral or physiological events occurring in association with sleep, specific sleep stages, or sleep-wake transition.

[3] = system: mild insomnia; conditions: lower doses (<4 g), without altering sleep architecture; cited from earlier work
[4] = children treated with L-tryptophan
[5] = out of 69 patients who took L-Tryptophan
[6] = patients aged 3-18 years who took L-Tryptophan (n=69)
[7] = patients who took L-Tryptophan (n=69)
[8] = subjects administered L-tryptophan
[9] = Case A, current dose of 1.75 mg
[10] = Case B, 3 g one hour before bedtime

## N[C@@H](Cc1c[nH]c2ccccc12)C(=O)O [L-tryptophan, (2S)-2-amino-3-(1H-indol-3-yl)propanoic acid]
[1]; [4]
  frequency of parasomnic events: reduced
  number of arousals in sleep: decreasing
[1]; [5]
  side effects observed, number of patients: 7
  side effects observed, percent of patients: 10%
[1]; [6]
  improvement in parasomnia symptoms (B or R), number of patients: 55
  improvement in parasomnia symptoms (B or R), percent of patients: 80%
[1]; [7]
  no change in parasomnia symptoms (U), number of patients: 10
  no change in parasomnia symptoms (U), percent of patients: 14%
  worsening of parasomnia symptoms (W), number of patients: 4
  worsening of parasomnia symptoms (W), percent of patients: 6%
[1]; [8]
  alertness during the day: increased
  attention during the day: better
  number of temper tantrums: reduced
[2]; [9]
  daytime fatigue: less problematic
  nightly sleep talking: ceased
  patient's sleep: improved
  time to fall asleep after retiring to bed: 15 to 20 min
[2]; [10]
  daytime somnolence or fatigue: no observation of daytime somnolence or fatigue
  night terrors: no night terrors
  nightly bedwetting / enuretic episodes: still continues to experience nightly enuretic episodes
[2]; Case B, six capsules (3 g) one hour before bedtime
  tolerability: able to tolerate
[2]; Case C, dosage of 2 mg
  daytime endurance: improved significantly
  sleepwalking: No observed parasomnic behaviours of sleepwalking
  subject's sleep: marked improvement
[2]; Case D, 2 g daily
  bruxism: declined significantly
  sleepwalking: no episodes of sleep walking
[2]; Case E, 4.5 g daily
  frequency of bedwetting: declined substantially
  sleepwalking and sleep talking: no longer walked or talked in their sleep
[2]; Case F, dose of 2.25 mg daily
  sleep overall: improved noticeably
  tolerability: tolerated L-tryptophan well
[3]
  decrease in sleep latency: about half
